Test results as given in PubChem BioAssay (NCI).
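Test compounds were applied to cells in 96-well plates for 48 hours at 5 doses. Here, GI50 denotes the concentration required for 50% inhibition of growth. TGI marks complete inhibition of growth.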

How the values were obtained:
Experiment in all cases: NCI anticancer screen, dose series, 48 h
786-0 renal = tested on: 786-0 renal
A498 renal = tested on: A498 renal
A549 NSCLC = tested on: A549 NSCLC
ACHN renal = tested on: ACHN renal
BT-549 breast = tested on: BT-549 breast
CAKI-1 renal = tested on: CAKI-1 renal
CCRF-CEM leukemia = tested on: CCRF-CEM leukemia
COLO 205 colon = tested on: COLO 205 colon
DU-145 prostate = tested on: DU-145 prostate
EKVX NSCLC = tested on: EKVX NSCLC
HCC-2998 colon = tested on: HCC-2998 colon
HCT-116 colon = tested on: HCT-116 colon
HCT-15 colon = tested on: HCT-15 colon
HL-60(TB) leukemia = tested on: HL-60(TB) leukemia
HOP-62 NSCLC = tested on: HOP-62 NSCLC
HOP-92 NSCLC = tested on: HOP-92 NSCLC
HS 578T breast = tested on: HS 578T breast
HT29 colon = tested on: HT29 colon
IGROV1 ovarian = tested on: IGROV1 ovarian
K-562 leukemia = tested on: K-562 leukemia
KM12 colon = tested on: KM12 colon
LOX IMVI melanoma = tested on: LOX IMVI melanoma
M14 melanoma = tested on: M14 melanoma
MALME-3M melanoma = tested on: MALME-3M melanoma
MCF7 breast = tested on: MCF7 breast
MDA-MB-231 breast = tested on: MDA-MB-231 breast
MDA-MB-435 = tested on: MDA-MB-435
MOLT-4 leukemia = tested on: MOLT-4 leukemia
NCI-H226 lung = tested on: NCI-H226 lung

CCOC(=O)c1c(NCC(=O)Nc2ccc(Br)cc2)sc2c1CCCC2
GI50 (786-0 renal): 2260 nM
TGI (786-0 renal): 6040 nM
GI50 (A498 renal): 1850 nM
TGI (A498 renal): 5670 nM
GI50 (A549 NSCLC): 2780 nM
TGI (A549 NSCLC): 8460 nM
GI50 (ACHN renal): 1740 nM
TGI (ACHN renal): 3290 nM
GI50 (BT-549 breast): 1450 nM
TGI (BT-549 breast): 3970 nM
GI50 (CAKI-1 renal): 2060 nM
TGI (CAKI-1 renal): 7460 nM
GI50 (CCRF-CEM leukemia): 801 nM
TGI (CCRF-CEM leukemia): 6720 nM
GI50 (COLO 205 colon): 2010 nM
TGI (COLO 205 colon): 4520 nM
GI50 (DU-145 prostate): 1680 nM
TGI (DU-145 prostate): 3280 nM
GI50 (EKVX NSCLC): 1810 nM
TGI (EKVX NSCLC): 4910 nM
GI50 (HCC-2998 colon): 1820 nM
TGI (HCC-2998 colon): 3360 nM
GI50 (HCT-116 colon): 1630 nM
TGI (HCT-116 colon): 3810 nM
GI50 (HCT-15 colon): 1380 nM
TGI (HCT-15 colon): 3470 nM
GI50 (HL-60(TB) leukemia): 1570 nM
TGI (HL-60(TB) leukemia): 4370 nM
GI50 (HOP-62 NSCLC): 2320 nM
TGI (HOP-62 NSCLC): 5710 nM
GI50 (HOP-92 NSCLC): 1420 nM
TGI (HOP-92 NSCLC): 3840 nM
GI50 (HS 578T breast): 2890 nM
TGI (HS 578T breast): 32300 nM
GI50 (HT29 colon): 1910 nM
TGI (HT29 colon): 3980 nM
GI50 (IGROV1 ovarian): 2130 nM
TGI (IGROV1 ovarian): 12100 nM
GI50 (K-562 leukemia): 1660 nM
TGI (K-562 leukemia): 7090 nM
GI50 (KM12 colon): 1970 nM
TGI (KM12 colon): 4100 nM
GI50 (LOX IMVI melanoma): 829 nM
TGI (LOX IMVI melanoma): 2810 nM
GI50 (M14 melanoma): 1900 nM
TGI (M14 melanoma): 4900 nM
GI50 (MALME-3M melanoma): 1770 nM
TGI (MALME-3M melanoma): 3810 nM
GI50 (MCF7 breast): 1480 nM
TGI (MCF7 breast): 3510 nM
GI50 (MDA-MB-231 breast): 2080 nM
TGI (MDA-MB-231 breast): 5210 nM
GI50 (MDA-MB-435): 1900 nM
TGI (MDA-MB-435): 5580 nM
GI50 (MOLT-4 leukemia): 712 nM
TGI (MOLT-4 leukemia): 4660 nM
GI50 (NCI-H226 lung): 1720 nM
